For one assay, the target named is V1a (Homo sapiens, UniProt P37288). Description: In-vitro receptor binding assay (3H-arginine-8-vasopressin), V1a. As for the experimental part: (§1) (A) In-Vitro Binding Assay […] The reaction plates are allowed to sit at room temperature for one hour. The samples are filtered through Unifilter GF/C plates (presoaked in 0.3 polyethyleneimine). The plates are washed 5 times with cold physiological saline containing 0.05% Tween 20. After drying, the bottom of the filter plates are sealed and 0.025 ml of Microscint-20 is added to each filter. The top of the plate is sealed, and the plate is counted. Non-specific binding is determined by the addition of 1.25 μM […]-vasopressin in those wells. % Inh. is calculated as follows: […]
V1a, sequence (P37288 whole entry): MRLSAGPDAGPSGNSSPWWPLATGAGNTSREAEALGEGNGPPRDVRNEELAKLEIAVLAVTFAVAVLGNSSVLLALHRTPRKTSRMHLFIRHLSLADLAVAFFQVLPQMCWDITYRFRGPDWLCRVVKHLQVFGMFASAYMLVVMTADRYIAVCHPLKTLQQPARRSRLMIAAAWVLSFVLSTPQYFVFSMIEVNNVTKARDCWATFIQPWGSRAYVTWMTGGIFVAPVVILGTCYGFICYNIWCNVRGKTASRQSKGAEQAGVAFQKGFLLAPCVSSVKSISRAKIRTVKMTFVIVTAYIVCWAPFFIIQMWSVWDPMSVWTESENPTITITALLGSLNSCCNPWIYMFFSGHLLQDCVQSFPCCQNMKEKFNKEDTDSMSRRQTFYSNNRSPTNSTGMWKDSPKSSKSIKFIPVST

A further assay deals with human V2 receptor (Homo sapiens, UniProt P30518). Description: In-vitro receptor binding assay (3H-arginine-8-vasopressin), V2. How it is done: as §1
human V2 receptor, sequence (P30518 whole entry): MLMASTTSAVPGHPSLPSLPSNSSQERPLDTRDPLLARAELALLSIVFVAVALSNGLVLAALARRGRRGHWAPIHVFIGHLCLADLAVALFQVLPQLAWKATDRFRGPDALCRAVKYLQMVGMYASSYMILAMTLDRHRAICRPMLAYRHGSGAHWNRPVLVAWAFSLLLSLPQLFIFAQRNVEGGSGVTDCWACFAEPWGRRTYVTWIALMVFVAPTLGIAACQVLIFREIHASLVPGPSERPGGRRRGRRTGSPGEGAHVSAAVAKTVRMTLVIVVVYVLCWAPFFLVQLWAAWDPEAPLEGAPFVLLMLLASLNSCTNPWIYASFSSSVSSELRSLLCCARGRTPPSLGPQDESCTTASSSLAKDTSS
Setting [1] is: read-out: Receptor Binding V1a (% Inh. @ concentration in μM).

As usually defined, the IC50 is the point on the concentration scale where inhibition reaches its midpoint. A lower IC50 goes with higher potency.

Molecules are shown by their SMILES.

For `Cc1ccc(F)cc1C(=O)Nc1ccc(C(=O)N2CCC3(C=C(C(=O)NCCCN4CCOCC4)CC3)Cc3ccccc32)cc1` (stereo not drawn) [Compound 158], the results for the 50% inhibitory concentration (IC50) at V1a and on human V2 receptor were 0.016 µM and 0.039 µM, respectively.

With `O=C(c1cc(C(F)(F)F)cc(C(F)(F)F)c1)N1CCC2(C=CCCC2)Cc2ccccc21` (stereo not drawn) [Compound 50], the “Receptor Binding V1a (% Inh. @ concentration in μM)” value at V1a (@ 10 μM) came out at 20% @ 10. In addition, the “Receptor Binding V2 (% Inh. @ concentration in μM)” value on human V2 receptor (@ 10 μM) is given as 26% @ 10. Compound `COc1cc(C(=O)N2CC[C@]3(C=C(C(=O)NCCN(C)C)CC3)Cc3ccccc32)ccc1-n1ccc(CO)c1` [Compound 197] yielded an IC50 at V1a of 0.006 µM. For the same compound, the inhibition at 0.1 µM at human V2 receptor (@ 0.1 μM, read-out: Receptor Binding V2 (% Inh. @ concentration in μM)) is 0%. As to `N#Cc1ccc(C(=O)N2CCC3(CCCCC3)Cc3ccccc32)cc1` [Compound 24], the IC50 on V1a was found to be 0.8 µM. In addition, the inhibition at 10 µM at human V2 receptor (@ 10 μM, read-out: Receptor Binding V2 (% Inh. @ concentration in μM)) is 26%. For `COc1cc(C(=O)N2CCC3(C=C(C(=O)NCCN(C)C)CC3)Cc3ccccc32)ccc1-n1ccc(C=O)c1` (stereo not drawn) [Compound 189, 4-[3-Methoxy-4-(pyrrol-1-yl-3-carboxaldehyde)benzoyl]-3′-[2-(N,N-dimethylamino)ethylcarboxamido]-4-aza-[6,4]-spiro-[5,6]-benzoundec-2′-ene], the concentration for half-maximal inhibition (IC50) at V1a came to 0.045 µM. Further, the inhibition at 1 µM at human V2 receptor (@ 1 μM, read-out: Receptor Binding V2 (% Inh. @ concentration in μM)) is 13%. On to `O=C(c1ccccc1-c1ccccc1)N1CCC2(C=CCCC2)Cc2ccccc21` (stereo not drawn) [Compound 64], for which the “Receptor Binding V1a (% Inh. @ concentration in μM)” value at V1a (@ 1 μM) was determined as 1% @ 1. In addition, on human V2 receptor (@ 1 μM), the “Receptor Binding V2 (% Inh. @ concentration in μM)” value stood at 12% @ 1. For the compound `COC(=O)C1=CC2(CC1)CCN(C(=O)c1ccc(-n3ccc(C(C)=O)c3)c(OC)c1)c1ccccc1C2` (stereo not drawn) [Compound 215], the inhibition at 0.1 µM on V1a (setting [1]) is 64%. With `Cc1ccn(-c2ccc(C(=O)N3CCC4(C=C(C(=O)N5CCN(C)CC5)CC4)Cc4ccccc43)cc2N(C)C)n1` (stereo not drawn) [Compound 214], at V1a (setting [1]), the inhibition at 0.1 µM was 48%.

For `O=C(c1ccc(F)cc1)N1CCC2(C=CCCC2)Cc2ccccc21` (stereo not drawn) [Compound 44], on human V2 receptor (@ 10 μM), the “Receptor Binding V2 (% Inh. @ concentration in μM)” value was 42% @ 10. Turning to `COC(=O)C1=CC2(CC1)CCN(C(=O)c1cc(OC)c(OC)c(OC)c1)c1ccccc1C2` (stereo not drawn) [Compound 203], on V1a (setting [1]), the inhibition at 0.1 µM came to 3%. On the same count and under the same terms, the same measure for `COc1cc(-n2ccc(C(=O)O)c2)ccc1C(=O)N1CCC2(C=C(C(=O)NCCN(C)C)CC2)Cc2ccccc21` (stereo not drawn) [Compound 200]: 0%. On V1a, `CN(C)CCCNC(=O)C1=CC2(CC1)CCN(C(=O)c1ccc(NC(=O)c3cc(F)ccc3F)cc1)c1ccccc1C2` (stereo not drawn) [Compound 221] displayed a 50% inhibitory concentration (IC50) of 0.009 µM.

As for `COc1cc(C(=O)N2CCC3(C=C(C(=O)N4CCN(C)CC4)CC3)Cc3ccccc32)ccc1-n1ccc(C(C)=O)c1` (stereo not drawn) [Compound 216], on V1a (setting [1]), the inhibition at 0.1 µM turned out to be 6%. For `O=C(c1ccccc1)N1CCC2(C=CCCC2)Cc2ccccc21` (stereo not drawn) [Compound 34], at V1a, the IC50 turned out to be 0.65 µM. As to `O=C(O)C1=CC2(CC1)CCN(C(=O)c1ccc(NC(=O)c3cc(F)ccc3F)cc1)c1ccccc1C2` (stereo not drawn) [Compound 219], the inhibition at 0.2 µM at V1a (@ 0.2 μM, read-out: Receptor Binding V1a (% Inh. @ concentration in μM)) worked out at 48%.

Turning to `COc1ccc(C(=O)Nc2ccc(C(=O)N3CCC4(C=CCCC4)Cc4ccccc43)cc2)cc1OC` (stereo not drawn) [Compound 97], the “Receptor Binding V2 (% Inh. @ concentration in μM)” value on human V2 receptor (@ 1 μM) was found to be 2% @ 1. Turning to `CCOC(=O)Oc1c(OC)cc(C(=O)N2CCC3(C=C(C(=O)OC)CC3)Cc3ccccc32)cc1OC` (stereo not drawn) [Compound 204], the inhibition at 0.1 µM at V1a (setting [1]) was determined as 0%. For `Cc1ccn(-c2ccc(C(=O)N3CCC4(C=C(C(=O)N5CCN(C)CC5)CC4)Cc4ccccc43)cc2)n1` (stereo not drawn) [Compound 217], the inhibition at 0.1 µM on V1a (setting [1]) was 42%. On to `CN(C)CCNC(=O)C1=CC2(CC1)CCN(C(=O)c1ccc(NC(=O)c3cc(F)ccc3F)cc1)c1ccccc1C2` (stereo not drawn) [Compound 220], for which the 50% inhibitory concentration (IC50) at V1a was 0.013 µM. Regarding `CCOC(=O)Oc1c(OC)cc(C(=O)N2CCC3(C=CCCC3)Cc3ccccc32)cc1OC` (stereo not drawn) [Compound 206, 4-(4-Ethoxycarboyloxy-3,5-dimethoxybenzoyl)-4-aza-[6,5]-spiro-[5,6]-benzododec-2′-ene], the inhibition at 0.1 µM on V1a (setting [1]) is 9%. With `CCCCOc1ccc(C(=O)N2CCC3(C=C(C(=O)OC)CC3)Cc3ccccc32)cc1` (stereo not drawn) [Compound 205], the IC50 on V1a turned out to be 0.14 µM.

Values taken from patent US7691844B2, “Nonpeptide substituted spirobenzoazepines as vasopressin antagonists” (Ortho-McNeil Pharmaceutical, Inc., priority 2000, dated 2010).
